In paper PMC7218270 (EBioMedicine, 2020):
Values after ≈ are worked out from the molar mass of the structure shown. Values joined by “and” are separate entries in the source; they are usually repeats but may differ in a detail not shown here. Equal entries are not always repeated.

Key:
S. pneumoniae = assay: MIC, planktonic cells; assay type: cell-based; conditions: Streptococcus pneumoniae, 18 h
E. coli ATCC25922 = assay: MIC, planktonic cells; assay type: cell-based; conditions: Escherichia coli, ATCC25922, 18 h
P. aeruginosa CMCC10104 = assay: MIC, planktonic cells; assay type: cell-based; conditions: Pseudomonas aeruginosa, CMCC10104, 18 h
P. aeruginosa 103 = assay: MIC, planktonic cells; assay type: cell-based; conditions: Pseudomonas aeruginosa, 103, 18 h
E. coli A2 = assay: MIC, planktonic cells; assay type: cell-based; conditions: Escherichia coli, A2, 18 h
[1] = test system: Drug-susceptible P. aeruginosa; assay: Resistance study, serial passages; assay type: cell-based; conditions: passages at 1/4 × MIC
Enterococcus faecalis = assay: MIC, planktonic cells; assay type: cell-based; conditions: 18 h
Mlicrococcus scarlatinae = assay: MIC, planktonic cells; assay type: cell-based; conditions: 18 h
P. aeruginosa 110 = assay: MIC, planktonic cells; assay type: cell-based; conditions: Pseudomonas aeruginosa, 110, 18 h
P. aeruginosa ATCC27853 = assay: MIC, planktonic cells; assay type: cell-based; conditions: Pseudomonas aeruginosa, ATCC27853, 18 h
[2] = test system: Drug-susceptible C. albicans; assay type: cell-based
C. neoformans 001 = assay: microbe, parasite or virus in culture; assay type: cell-based; conditions: Cryptococcus neoformans, 001, 72 h
C. neoformans 6120 = assay: microbe, parasite or virus in culture; assay type: cell-based; conditions: Cryptococcus neoformans, 6120, 72 h
C. neoformans ATCC28957 = assay: microbe, parasite or virus in culture; assay type: cell-based; conditions: Cryptococcus neoformans, ATCC28957, 72 h
[3] = test system: fluconazole-resistant C. albicans; set-up: species or system G. mellonella; conditions: in vivo
C. albicans 006 = assay: microbe, parasite or virus in culture; assay type: cell-based; conditions: Candida albicans, 006, 72 h
C. neoformans 4906 = assay: microbe, parasite or virus in culture; assay type: cell-based; conditions: Cryptococcus neoformans, 4906, 72 h
C. albicans ATCC10231 = assay: microbe, parasite or virus in culture; assay type: cell-based; conditions: Candida albicans, ATCC10231, 72 h
C. albicans 7248 = assay: microbe, parasite or virus in culture; assay type: cell-based; conditions: Candida albicans, 7248, 72 h

| Compound | MIC (S. pneumoniae) [mg/L] | MIC (E. coli ATCC25922) [mg/L] | MIC (P. aeruginosa CMCC10104) [mg/L] | MIC (P. aeruginosa 103) [mg/L] | MIC (E. coli A2) [mg/L] | MIC increase ([1]; at the 8th generation) [fold] | MIC increase ([1]; at the 20th generation) [fold] | MIC (Enterococcus faecalis) [mg/L] | MIC (Mlicrococcus scarlatinae) [mg/L] | MIC (P. aeruginosa 110) [mg/L] | MIC (P. aeruginosa ATCC27853) [mg/L] | MIC increase [2] | further results |
| --- | --- | --- | --- | --- | --- | --- | --- | --- | --- | --- | --- | --- | --- |
| CC(C)(O/N=C(\C(=O)N[C@@H]1C(=O)N2C(C(=O)[O-])=C(C[n+]3ccccc3)CS[C@H]12)c1csc(N)n1)C(=O)O [Ceftazidime] | > 128 | 1 (≈ 1.83 µM) | 0.5 (≈ 0.915 µM) | > 128 | 64 (≈ 117 µM) | 4 | 16 | > 128 | > 128 | > 128 | 1 (≈ 1.83 µM) | – | – |
| OC(Cn1cncn1)(Cn1cncn1)c1ccc(F)cc1F [Fluconazole] | – | – | – | – | – | – | – | – | – | – | – | 4 fold and 8 fold | MIC (C. neoformans 001): 2 mg/L (≈ 6.53 µM); MIC (C. neoformans 6120): > 128 mg/L; MIC (C. neoformans ATCC28957): 2 mg/L (≈ 6.53 µM); survival rate of G. mellonella [3]: 40%; MIC (C. albicans 006): 4 mg/L (≈ 13.1 µM); MIC (C. neoformans 4906): 128 mg/L (≈ 418 µM); MIC (C. albicans ATCC10231): 4 mg/L (≈ 13.1 µM); MIC (C. albicans 7248): > 128 mg/L |
| CC1(C)S[C@@H]2[C@H](NC(=O)COc3ccccc3)C(=O)N2[C@H]1C(=O)O [Penicillin V potassium] | > 128 | 2 | 4 | > 128 | > 128 | – | – | > 128 | > 128 | > 128 | 2 | – | – |
| CC(=O)N1CCN(c2ccc(OCC3COC(Cn4ccnc4)(c4ccc(Cl)cc4Cl)O3)cc2)CC1 (stereo not drawn) [ketoconazole] | – | – | – | – | – | – | – | – | – | – | – | 4 fold | – |
| C[C@H]1COc2c(N3CCN(C)CC3)c(F)cc3c(=O)c(C(=O)O)cn1c23 [levofloxacin] | – | – | – | – | – | 4 | 8 | – | – | – | – | – | – |
| Polymyxin B | – | – | – | – | – | 16 | – | – | – | – | – | – | – |
